From ChEMBL document CHEMBL1135121, “Design and synthesis of some new pyranoxanthenone aminoderivatives with cytotoxic activity” (Bioorg Med Chem Lett, 2002)

What was measured:
L1210 = assay: Inhibitory concentration of compound against proliferation of murine leukemia L1210 cell line; type: functional, cell-based; settings: Mus musculus
HT-29 [1] = assay: Cell-cycle-phase distribution of HT-29 cell-cultures exposed to 10 uM concentration of compound for 22 hr in G0/G1 phase; type: functional, Homo sapiens
Calf thymus DNA = assay: In vitro calf thymus DNA binding affinity by ethidium bromide displacement; type: nucleic-acid assay, Bos taurus
A549 = assay: Inhibitory concentration of compound against proliferation of lung carcinoma A549 cell line; type: functional, cell-based; settings: Homo sapiens
HT-29 [2] = assay: Cell-cycle-phase distribution of HT-29 cell-cultures exposed to 10 uM concentration of compound for 22 hr in S phase; type: functional, Homo sapiens
HT-29 [3] = assay: Inhibitory concentration of compound against proliferation of colon carcinoma HT-29 cell line; type: functional, cell-based; settings: Homo sapiens
HT-29 [4] = assay: Cell-cycle-phase distribution of HT-29 cell-cultures exposed to 10 uM concentration of compound for 22 hr in G2/M phase; type: functional, Homo sapiens
Nucleic Acid = assay: In vitro DNA binding affinity for calf thymus DNA was determined using ethidium bromide displacement assay; Not detected; type: nucleic-acid assay, Bos taurus

Compound | IC50 (L1210) | Activity (HT-29 [1]) | EC50 (Calf thymus DNA) | IC50 (A549) | Activity (HT-29 [2]) | IC50 (HT-29 [3]) | Activity (HT-29 [4]) | EC50 (Nucleic Acid)
CCN(CC)CCNCc1c2c(cc3oc4ccccc4c(=O)c13)OC(C)(C)C=C2.Cl | 2 µM | 69.92 | 30 µM | 8 µM | 21.22 | 2 µM | 8.86 | –
CCN(CC)CCNC(=O)c1c2c(cc3oc4ccccc4c(=O)c13)OC(C)(C)C=C2 | 9 µM | 61.24 | 100 µM | 51 µM | 1.06 | 40 µM | 37.7 | –
CCN(CC)CCNC(=O)c1cc2c(c3oc4ccccc4c(=O)c13)C=CC(C)(C)O2 | 10 µM | – | 150 µM | 60 µM | – | 30 µM | – | –
CN(C)CCNCc1cc2c(c3oc4ccccc4c(=O)c13)C=CC(C)(C)O2 | 4.1 µM | – | 74 µM | 44 µM | – | 8.8 µM | – | –
CCN(CC)CCNc1cc2c(c3oc4ccccc4c(=O)c13)C=CC(C)(C)O2 | 8.4 µM | – | 88 µM | > 100 µM | – | 42 µM | – | –
CN(C)CCNCc1c2c(cc3oc4ccccc4c(=O)c13)OC(C)(C)C=C2 | 4 µM | – | 39 µM | 25 µM | – | 6.4 µM | – | –
CCN(CC)CCNCc1cc2c(c3oc4ccccc4c(=O)c13)C=CC(C)(C)O2.O=C(O)/C=C/C(=O)O | 2 µM | 79.7 | 42 µM | 11 µM | 12.53 | 1.7 µM | 7.77 | –
CN(C)CCNC(=O)c1c2c(cc3oc4ccccc4c(=O)c13)OC(C)(C)C=C2 | 12 µM | – | 107 µM | 57 µM | – | 60 µM | – | –
COc1cc2c(c3c1c(=O)c1ccccc1n3C)C=CC(C)(C)O2 [ACRONINE] | 27 µM | – | 82 µM | > 100 µM | – | > 100 µM | – | –
CN(C)CCNC(=O)c1cc2c(c3oc4ccccc4c(=O)c13)C=CC(C)(C)O2 | 16 µM | – | 197 µM | 90 µM | – | 12 µM | – | –
CCN(CC)CCNc1c2c(cc3oc4ccccc4c(=O)c13)OC(C)(C)C=C2.Cl | 5.1 µM | – | – | 25 µM | – | 8 µM | – | Not detected
CN(C)CCNc1cc2c(c3oc4ccccc4c(=O)c13)C=CC(C)(C)O2 | 7.1 µM | – | 89 µM | 23 µM | – | 8 µM | – | –
O=C1c2c(O)ccc(O)c2C(=O)c2c(NCCNCCO)ccc(NCCNCCO)c21 [MITOXANTRONE] | 0.04 µM | – | 0.4 µM | 0.3 µM | – | 8 µM | – | –
CN(C)CCNc1c2c(cc3oc4ccccc4c(=O)c13)OC(C)(C)C=C2.Cl | 5.8 µM | – | – | 30 µM | – | 23 µM | – | Not detected
